Experimental data published in patent publication US6653320B2, “Imidazopyridine derivatives” (Yamanouchi Pharmaceutical Co. Ltd., priority 2000, dated 2003).

Tests used:
bovine p110α = target: T1, bovine p110α (Bos taurus, UniProt P32871); assay: Inhibition of PI3K (p110α subtype); type: biochemical; settings: compared with known PI3K inhibitor LY294002
T1 construct: made in house
Experimental: The resulting mixture was stirred and then centrifuged. After the organic layer was extracted twice with 150 μl of MeOH/1M HCl (1:1). The radioactivity was measured using Cerenkov light.

HCT116 cells = type: cell-based; settings: HCT116 colon cancer cells, incubation over 72 hours, Alamar Blue, result in words
Experimental: HCT116 cells from a colon cancer cell line were cultured in McCoy's 5A medium (GIBCO) supplemented with 10% fetal bovine serum. HCT116 cells were inoculated on a 96 well plate (5000 cells/well) followed by overnight incubation. The test compound diluted with the medium was added to the medium in a final concentration of 0.1 to 30 μM (final DMSO concentration, 1%). After incubation for over 72 hours, Alamar Blue reagent was added to the medium. Two hours after the addition, a ratio of fluorescent intensity at an excitation wavelength of 530 nm to that at an emission wavelength of 590 nm was measured to determine the IC50.

A375 cells = assay: Melanoma cell growth inhibition; type: cell-based; settings: Homo sapiens, A-375, incubation over 46 hours, Alamar Blue
Experimental: A375 cells from a melanoma cell line were cultured in DMEM medium (GIBCO) supplemented with 10% fetal bovine serum. A375 cells at 10,000 cells/100 μl were added to a 96 well plate which contained 1 μl/well of the test compounds (final concentration of 0.001˜30 μM). After incubation for over 46 hours, Alamar Blue reagent was added to the medium (10 μl/well). Two hours after the addition, a ratio of fluorescent intensity at an excitation wavelength of 530 nm to that at an emission wavelength of 590 nm was measured to determine the IC50 of the test compounds in the same manner as in the above examples.

T1 sequence (P32871 whole entry): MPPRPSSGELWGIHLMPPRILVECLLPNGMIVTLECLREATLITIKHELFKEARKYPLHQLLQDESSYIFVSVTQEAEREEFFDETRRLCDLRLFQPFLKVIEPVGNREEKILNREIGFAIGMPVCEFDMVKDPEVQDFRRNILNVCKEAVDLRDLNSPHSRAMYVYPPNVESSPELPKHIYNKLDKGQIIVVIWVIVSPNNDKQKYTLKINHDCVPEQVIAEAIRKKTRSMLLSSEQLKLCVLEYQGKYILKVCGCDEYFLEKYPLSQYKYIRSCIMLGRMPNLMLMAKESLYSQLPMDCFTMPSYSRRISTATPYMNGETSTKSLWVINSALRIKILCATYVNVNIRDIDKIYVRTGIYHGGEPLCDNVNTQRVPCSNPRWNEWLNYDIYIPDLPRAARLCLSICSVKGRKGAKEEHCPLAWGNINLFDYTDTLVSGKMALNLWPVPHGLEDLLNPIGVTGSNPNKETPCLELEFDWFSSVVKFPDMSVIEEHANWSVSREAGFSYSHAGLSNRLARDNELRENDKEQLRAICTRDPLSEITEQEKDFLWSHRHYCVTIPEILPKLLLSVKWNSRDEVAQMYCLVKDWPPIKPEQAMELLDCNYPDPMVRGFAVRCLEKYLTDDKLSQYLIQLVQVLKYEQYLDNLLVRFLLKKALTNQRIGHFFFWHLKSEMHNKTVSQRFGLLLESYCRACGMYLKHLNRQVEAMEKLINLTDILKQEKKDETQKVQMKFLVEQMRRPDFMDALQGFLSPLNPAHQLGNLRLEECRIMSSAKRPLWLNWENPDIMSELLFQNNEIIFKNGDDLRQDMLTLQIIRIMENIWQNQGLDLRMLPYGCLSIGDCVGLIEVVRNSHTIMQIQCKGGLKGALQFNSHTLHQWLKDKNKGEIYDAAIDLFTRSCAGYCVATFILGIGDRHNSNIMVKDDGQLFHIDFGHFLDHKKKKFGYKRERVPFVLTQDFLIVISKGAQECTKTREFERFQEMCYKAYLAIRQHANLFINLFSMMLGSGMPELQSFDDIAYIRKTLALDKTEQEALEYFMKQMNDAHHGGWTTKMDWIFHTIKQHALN

Compound	PI3K inhibition, strength relative to LY294002 (bovine p110α)	cancer cell growth inhibition activity (HCT116 cells)	IC50 (A375 cells) [nM]
Cc1ccc([N+](=O)[O-])cc1S(=O)(=O)n1ccc(-c2c(C)nc3ccc(Br)cn23)n1 [Compound 6, 3-(6-Bromo-2-methylimidazo[1,2-a]pyridin-3-yl)-1H-pyrazol-1-yl 2-methyl-5-nitrophenyl sulfone]	more than 10 times	good cancer cell growth inhibition activity	
Cc1ccc2ncc(C=NN(C)S(=O)(=O)c3cc([N+](=O)[O-])ccc3C)n2c1 [Compound 99, 1′,2-dimethyl-2′-[(6-methylimidazo[1,2-a]pyridin-3-yl)methylidene]-5-nitrobenzenesulfonohydrazide]			< 1000
